According to US20260242419A1, “A CYCLIC PEPTIDE FOR TRAPPING INTERLEUKIN-1 BETA” (Merck Sharp & Dohme LLC, priority 2023, published 2026):
Where two headings read alike, the source gives them in different places. Non-standard residues stand in square brackets, D forms with d. Residues, ends and D or L forms follow the SMILES beside them. Phe(4-(cis-4-COOH-cHex)) = N[C@@H](Cc1ccc([C@H]2CC[C@@H](C(=O)O)CC2)cc1)C(=O)O; Phe(4-(5-CO2H-2-pyrimidyl)) = N[C@@H](Cc1ccc(-c2ncc(C(=O)O)cn2)cc1)C(=O)O; dPro(4R-(4-pyridylmethyl)) = O=C(O)[C@H]1C[C@@H](Cc2ccncc2)CN1; Trp(βS-Me,4-F) = C[C@@H](c1c[nH]c2cccc(F)c12)[C@H](N)C(=O)O; Bip(4'-COOH) = N[C@@H](Cc1ccc(-c2ccc(C(=O)O)cc2)cc1)C(=O)O; Ala(1-bicyclo(1.1.1)pentyl) = N[C@@H](CC12CC(C1)C2)C(=O)O; dPro(4R-Bzl(4-F)) = O=C(O)[C@H]1C[C@@H](Cc2ccc(F)cc2)CN1; Ala(pyrimidin-5-yl) = N[C@@H](Cc1cncnc1)C(=O)O; Phe(4-COOH) = N[C@@H](Cc1ccc(C(=O)O)cc1)C(=O)O; Pro(cis-4-F) = O=C(O)[C@@H]1C[C@H](F)CN1; AEF = NCCOc1ccc(C[C@H](N)C(=O)O)cc1; 4Pal = N[C@@H](Cc1ccncc1)C(=O)O; NMeDab = CN[C@@H](CCN)C(=O)O; Api = NC1(C(=O)O)CCNCC1; Dab = NCC[C@H](N)C(=O)O; Aib = CC(C)(N)C(=O)O

Biological target: T1, IL-1β (Homo sapiens, UniProt P01584)
T1 construct: purchased BioLegend 579404
Experiment: IL-6 assay in MRC5 cells: inhibition of IL-1β induced IL-6 secretion (AlphaLISA)
Type: cell-based
Conditions: inhibition of IL-1β induced IL-6 secretion in MRC5 cells, read-out: MRC5 IC50
Summary of the method: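 Compound was pre-incubated 1 h at ambient temperature with recombinant human IL-1β at 2λ EC80 before adding human lung fibroblast MRC5 cells (3000/well) in EMEM with 0.025% BSA. After overnight culture at 37 °C, 5% CO2, secreted IL-6 in conditioned medium was measured by AlphaLISA; IC50 from 4-parameter logistic fits.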

T1 sequence (P01584 117-269): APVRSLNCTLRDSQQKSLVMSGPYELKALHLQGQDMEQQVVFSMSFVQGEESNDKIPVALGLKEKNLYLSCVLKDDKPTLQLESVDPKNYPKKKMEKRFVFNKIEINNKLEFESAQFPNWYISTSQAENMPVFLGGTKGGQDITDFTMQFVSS

Row | Structure (SMILES) | IC50 (compound pre-incubated 1 hour with recombinant human IL-1β) [nM] | IC50 [nM]
1 | C[C@@H](c1c[nH]c2cccc(F)c12)[C@@H]1NC(=O)[C@@H]2C[C@H](F)CN2C(=O)CNC(=O)[C@H](Cc2ccc(C(=O)O)cc2)NC(=O)[C@H](Cc2ccncc2)NC(=O)[C@H](Cc2ccc(-c3ccc(C(=O)O)cc3)cc2)NC(=O)[C@H]2C[C@@H](Cc3ccncc3)CN2C(=O)CNC(=O)[C@H](CCN)N(C)C(=O)[C@H](CCC(N)=O)NC(=O)[C@H](Cc2cncnc2)NC(=O)C(C)(C)NC(=O)[C@H](Cc2c[nH]c3ccccc23)NC(=O)[C@H](CO)NC(=O)C(C)(C)NC1=O [Example 262] (cyclo([Bip(4'-COOH)][4Pal][Phe(4-COOH)]G[Pro(cis-4-F)][Trp(βS-Me,4-F)][Aib]SW[Aib][Ala(pyrimidin-5-yl)]Q[NMeDab]G[dPro(4R-(4-pyridylmethyl))])) | 0.02 | 
2 | CC(=O)NCCOc1ccc(C[C@@H]2NC(=O)[C@H]3C[C@@H](Cc4ccncc4)CN3C(=O)CNC(=O)[C@H](CCN)NC(=O)[C@H](CCC(N)=O)NC(=O)[C@H](Cc3ccccc3)NC(=O)C(C)(C)NC(=O)[C@H](Cc3c[nH]c4ccccc34)NC(=O)[C@H](CCC(=O)O)NC(=O)C(C)(C)NC(=O)[C@H]([C@@H](C)c3c[nH]c4cccc(F)c34)NC(=O)[C@@H]3C[C@H](F)CN3C(=O)CNC(=O)[C@H](Cc3ccc(C(=O)O)cc3)NC(=O)[C@H](Cc3ccncc3)NC2=O)cc1 [Example 336] (cyclo([AEF](Ac)[4Pal][Phe(4-COOH)]G[Pro(cis-4-F)][Trp(βS-Me,4-F)][Aib]EW[Aib]FQ[Dab]G[dPro(4R-(4-pyridylmethyl))])) |  | 0.023
3 | C[C@@H](c1c[nH]c2cccc(F)c12)[C@@H]1NC(=O)[C@@H]2C[C@H](F)CN2C(=O)CNC(=O)[C@H](Cc2ccc(C(=O)O)cc2)NC(=O)[C@H](CC23CC(C2)C3)NC(=O)[C@H](Cc2ccc([C@H]3CC[C@@H](C(=O)O)CC3)cc2)NC(=O)[C@H]2C[C@@H](Cc3ccc(F)cc3)CN2C(=O)CNC(=O)[C@H](CCN)NC(=O)[C@H](CCC(N)=O)NC(=O)[C@H](CO)NC(=O)C2(CCNCC2)NC(=O)[C@H](Cc2c[nH]c3ccccc23)NC(=O)[C@H](CCC(=O)O)NC(=O)C(C)(C)NC1=O [Example 105] (cyclo([Phe(4-(cis-4-COOH-cHex))][Ala(1-bicyclo(1.1.1)pentyl)][Phe(4-COOH)]G[Pro(cis-4-F)][Trp(βS-Me,4-F)][Aib]EW[Api]SQ[Dab]G[dPro(4R-Bzl(4-F))])) |  | 0.083
4 | C[C@@H](c1c[nH]c2cccc(F)c12)[C@@H]1NC(=O)[C@@H]2C[C@H](F)CN2C(=O)CNC(=O)[C@H](Cc2ccc(C(=O)O)cc2)NC(=O)[C@H](CC23CC(C2)C3)NC(=O)[C@H](Cc2ccc(-c3ncc(C(=O)O)cn3)cc2)NC(=O)[C@H]2C[C@@H](Cc3ccc(F)cc3)CN2C(=O)CNC(=O)[C@H](CCN)NC(=O)[C@H](CCC(N)=O)NC(=O)[C@H](Cc2ccncc2)NC(=O)C(C)(C)NC(=O)[C@H](Cc2c[nH]c3ccccc23)NC(=O)[C@H](CO)NC(=O)C(C)(C)NC1=O [Example 84] (cyclo([Phe(4-(5-CO2H-2-pyrimidyl))][Ala(1-bicyclo(1.1.1)pentyl)][Phe(4-COOH)]G[Pro(cis-4-F)][Trp(βS-Me,4-F)][Aib]SW[Aib][4Pal]Q[Dab]G[dPro(4R-Bzl(4-F))])) |  | 0.047
5 | C[C@@H](c1c[nH]c2cccc(F)c12)[C@@H]1NC(=O)[C@@H]2C[C@H](F)CN2C(=O)CNC(=O)[C@H](Cc2ccc(C(=O)O)cc2)NC(=O)[C@H](CC23CC(C2)C3)NC(=O)[C@H](Cc2ccc([C@H]3CC[C@@H](C(=O)O)CC3)cc2)NC(=O)[C@H]2C[C@@H](Cc3ccc(F)cc3)CN2C(=O)CNC(=O)[C@H](CCN)NC(=O)[C@H](CCC(N)=O)NC(=O)[C@H](CO)NC(=O)C(C)(C)NC(=O)[C@H](Cc2c[nH]c3ccccc23)NC(=O)[C@H](CO)NC(=O)C(C)(C)NC1=O [Example 106] (cyclo([Phe(4-(cis-4-COOH-cHex))][Ala(1-bicyclo(1.1.1)pentyl)][Phe(4-COOH)]G[Pro(cis-4-F)][Trp(βS-Me,4-F)][Aib]SW[Aib]SQ[Dab]G[dPro(4R-Bzl(4-F))])) |  | 0.031
